From US20230064990A1, “DOSING REGIMENS AND METHODS FOR TREATING CANCER” (Panbela Therapeutics, Inc., priority 2020, published 2023)

Tests used:
[1] = Phase 1a/1b study in combination with G and A, safety; format: in vivo, human; conditions: N=20
Protocol: G (1000 mg/m^2) and A (125 mg/m^2) were administered intravenously on Days 1, 8, and 15 of each cycle. […] PK was evaluated on day 1 of cycle 1. Efficacy was assessed by CA19-9 levels, objective response was assessed by RECIST criteria, progression-free survival (PFS) and overall survival (OS).
This is a multicenter, open label, Phase 1a/1b study to evaluate to evaluate the safety, tolerability, pharmacokinetics and efficacy of (S,S)-(HO)2DEHSPM when administered in combination with G and A as first-line therapy in pancreatic cancer patients previously untreated for metastatic disease. The objective was to determine a recommended Phase 2 dose. Using a modified 3+3 dose escalation scheme, cohorts of subjects were dosed with subcutaneous injections of (S,S)-(HO)2DEHSPM at 0.2, 0.4 or 0.6 mg/kg days 1-5 of each 28-day cycle. Gemcitabine (1000 mg/m^2) and A (125 mg/m^2) were administered intravenously on Days 1, 8, and 15 of each cycle. […] PK was evaluated on day 1 of cycle 1. Efficacy was assessed by objective response rate (ORR) using RECIST criteria and by changes in CA19-9 levels. Subjects were treated until disease progression or the development of dose-limiting toxicity. Based upon initial safety findings and preliminary signals of efficacy, the protocol was amended to evaluate progression-free survival (PFS) and overall survival (OS) and expand the study to up to 36 subjects at the recommended Phase 2 dose. To date, 20 subjects were enrolled in cohorts 1-3 and evaluated for dose limiting toxicity and early signals of efficacy.

[2] = tested on: human L3.6pl pancreatic cancer cells; assay: Orthotopic implantation of L3.6pl pancreatic cancer cells into nude mice; conditions: Study 3, GEM 100 mg/kg 2×/wk ip, (S,S)-(HO)2DEHSPM 25 mg/kg 3×/wk
Protocol: These studies examined the anti-neoplastic effects of subcutaneous administration of (S,S)-(HO)2DEHSPM following orthotopic implantation of human L3.6pl pancreatic cancer cells into the pancreas of nude mice.
L3.6pl cells were injected into the pancreas of nude mice; treatment was initiated by group (n=10/group planned) 7-10 days later following establishment of tumors:
Study 1: saline (control), (S,S)-(HO)2DEHSPM (25 mg/kg), (S,S)-(HO)2DEHSPM (50 mg/kg), and (S,S)-(HO)2DEHSPM (100 mg/kg) daily (QD) for 4 to 6 weeks (wks).
Study 2: saline (control), (S,S)-(HO)2DEHSPM (25 mg/kg QD), (S,S)-(HO)2DEHSPM (25 mg/kg 3×/wk), (S,S)-(HO)2DEHSPM (15 mg/kg 3×/wk), and (S,S)-(HO)2DEHSPM (5 mg/kg 3×/wk) for 4 to 6 wks.
Study 3: saline (control), gemcitabine (GEM) (100 mg/kg 2×/wk, intraperitoneally), (S,S)-(HO)2DEHSPM (25 mg/kg 3×/wk), and (S,S)-(HO)2DEHSPM+GEM for 4 to 6 wks.

PDA = conditions: pivotal trials; cited from earlier work

| Compound | Grade ≥3 Elevated LFTs related to the named study medication (subjects) [1] | decreases in body weight ([2]; 4 to 6 wks) [%] | decreases in pancreas weight ([2]; compared with controls) [%] | decreases in tumor volume ([2]; compared with controls) [%] | DCR, historical rate (PDA) [%] | ORR, historical rate (PDA) [%] |
| --- | --- | --- | --- | --- | --- | --- |
| Nc1ccn([C@@H]2O[C@H](CO)[C@@H](O)C2(F)F)c(=O)n1 [GEM, gemcitabine, reference compound] | 1 (G) | 18.7 | 24.7 | 37.8 |  |  |
| FOLFIRINOX |  |  |  |  | 70 | 32 |
